Data reported in patent publication US10689362B2, “Quinoxaline compounds as type III receptor tyrosine kinase inhibitors” (Development Center for Biotechnology, priority 2016, dated 2020).

Columns and labels:
c-KIT kinase = c-KIT kinase (Homo sapiens (Human), UniProt P10721); experiment: c-KIT kinase assay (radiometric); format: biochemical
Description: (§1) Inhibition of c-KIT kinase activity by a test compound disclosed herein was estimated by radiometric assay. Standard assay conditions were 20 ng of recombinant c-Kit (SignalChem) with 2 μg of substrate Poly-(Glu 4:Tyr 1) (sigma) in the assay buffer in kinase reaction buffer (10 mM MOPS pH 7.0, 0.21 mM EDTA, 0.5% glycerol, 0.001% Brij-35, 0.01 2-mercaptoehtanol, 1 mg/ml BSA, 10 mM MgCl2, 10 mM MnCl2, 10 μM ATP, 0.1 μCi per well [^33P]-ATP, in the presence of test compound (diluted in final concentration of 4% DMSO) or DMSO control, with a final volume of 25 μl for 60 minutes at 30° C. The reaction was stopped by adding 5 μl of 3% phosphoric acid solution. Total reaction solution was then harvested onto a filter plate (UniFilter-96 GF/B, PerkinElmer), and washed 20 times for 5 min with dH2O. 30 μl of MicroScint™-20 Cocktail (PerkinElmer) was added to dried plate. The plate was sealed and counted using a TopCount scintillation detector (PerkinElmer). […] The IC50 values of quinoxaline compounds of this invention against c-KIT kinase were determined using the GraphPad Prism 5 software.
(§2) The IC50 values for selected quinoxaline compounds of this invention against CSF-1R, c-KIT, FLT3, and PDGFRβ are summarized in Table 3.

PDGFRβ kinase = PDGFRβ kinase (Homo sapiens (Human), UniProt P09619); experiment: PDGFRβ kinase assay (radiometric); format: biochemical; conditions: bound
PDGFRβ kinase, sequence (P09619 33-1106): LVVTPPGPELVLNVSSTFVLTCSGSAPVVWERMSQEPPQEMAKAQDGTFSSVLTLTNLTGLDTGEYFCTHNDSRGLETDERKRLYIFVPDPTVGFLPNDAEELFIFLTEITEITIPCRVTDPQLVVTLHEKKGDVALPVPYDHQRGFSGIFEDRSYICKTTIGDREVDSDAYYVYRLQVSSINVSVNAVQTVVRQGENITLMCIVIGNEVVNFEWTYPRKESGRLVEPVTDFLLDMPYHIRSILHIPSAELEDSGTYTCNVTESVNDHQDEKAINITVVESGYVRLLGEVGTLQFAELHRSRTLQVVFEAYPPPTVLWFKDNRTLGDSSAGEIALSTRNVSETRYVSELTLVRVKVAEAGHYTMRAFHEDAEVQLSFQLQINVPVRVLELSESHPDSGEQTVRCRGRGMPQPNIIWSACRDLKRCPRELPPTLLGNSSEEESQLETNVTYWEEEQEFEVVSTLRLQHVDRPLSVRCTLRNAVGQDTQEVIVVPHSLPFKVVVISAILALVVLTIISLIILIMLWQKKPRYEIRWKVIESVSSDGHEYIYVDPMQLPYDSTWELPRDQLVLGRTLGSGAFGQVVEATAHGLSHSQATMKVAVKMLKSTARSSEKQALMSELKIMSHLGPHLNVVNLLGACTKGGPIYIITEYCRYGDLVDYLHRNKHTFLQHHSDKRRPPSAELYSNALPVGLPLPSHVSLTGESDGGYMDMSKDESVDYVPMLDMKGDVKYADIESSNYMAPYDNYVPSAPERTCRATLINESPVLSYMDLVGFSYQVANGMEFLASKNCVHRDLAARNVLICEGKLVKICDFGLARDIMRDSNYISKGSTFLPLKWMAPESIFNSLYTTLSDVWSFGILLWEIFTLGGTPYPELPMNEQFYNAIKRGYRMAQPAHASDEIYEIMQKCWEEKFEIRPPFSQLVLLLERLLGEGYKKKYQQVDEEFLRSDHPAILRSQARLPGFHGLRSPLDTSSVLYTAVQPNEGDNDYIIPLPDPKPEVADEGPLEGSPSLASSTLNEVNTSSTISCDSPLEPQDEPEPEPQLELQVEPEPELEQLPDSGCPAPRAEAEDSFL
Description: as §1, with “of PDGFRβ” for “of c-KIT”, “were 10” for “were 20”, “recombinant PDGFRβ” for “recombinant c-Kit”, “well [^33P]-ATP),” for “well [^33P]-ATP,”, “against PDGFRβ” for “against c-KIT”
as §2

FLT3 kinase = FLT3 kinase (Homo sapiens (Human), UniProt P36888); experiment: FLT3 kinase assay (radiometric); format: biochemical
FLT3 kinase, sequence (P36888 27-993): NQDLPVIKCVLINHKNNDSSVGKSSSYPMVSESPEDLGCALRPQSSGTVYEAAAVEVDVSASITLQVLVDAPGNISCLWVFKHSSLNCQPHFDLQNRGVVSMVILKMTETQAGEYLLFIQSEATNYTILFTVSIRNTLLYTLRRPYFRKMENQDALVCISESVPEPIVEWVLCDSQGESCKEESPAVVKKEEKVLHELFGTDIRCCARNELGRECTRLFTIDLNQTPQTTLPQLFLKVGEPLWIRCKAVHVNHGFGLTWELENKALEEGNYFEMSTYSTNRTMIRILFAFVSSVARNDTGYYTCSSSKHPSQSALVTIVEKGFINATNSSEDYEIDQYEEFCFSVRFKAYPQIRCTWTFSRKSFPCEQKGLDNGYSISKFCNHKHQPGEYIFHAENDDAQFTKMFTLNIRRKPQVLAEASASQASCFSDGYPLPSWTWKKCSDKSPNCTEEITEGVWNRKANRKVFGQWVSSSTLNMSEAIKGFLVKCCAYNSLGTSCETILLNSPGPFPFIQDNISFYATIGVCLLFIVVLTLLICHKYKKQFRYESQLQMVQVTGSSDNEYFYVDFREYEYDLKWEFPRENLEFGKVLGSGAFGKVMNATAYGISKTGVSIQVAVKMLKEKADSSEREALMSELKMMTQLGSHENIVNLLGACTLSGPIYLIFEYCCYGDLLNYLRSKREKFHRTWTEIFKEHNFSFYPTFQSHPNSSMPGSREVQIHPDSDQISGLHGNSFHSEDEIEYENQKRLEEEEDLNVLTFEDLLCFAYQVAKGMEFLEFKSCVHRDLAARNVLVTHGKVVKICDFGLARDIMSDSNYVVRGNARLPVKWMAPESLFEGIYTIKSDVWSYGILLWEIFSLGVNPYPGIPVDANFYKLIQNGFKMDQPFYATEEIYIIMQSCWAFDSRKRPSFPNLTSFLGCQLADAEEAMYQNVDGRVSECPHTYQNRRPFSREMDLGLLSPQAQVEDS
Description: as §1, with “of FLT3” for “of c-KIT”, “were 5” for “were 20”, “recombinant FLT3 (Thermo Fisher)” for “recombinant c-Kit (SignalChem)”, “BSA, MgCl2” for “BSA,”, “10 mM,” for “10 mM MgCl2, 10 mM MnCl2,”, “against FLT3” for “against c-KIT”
as §2

CSF-1R kinase = CSF-1R kinase (Homo sapiens (Human), UniProt P07333); experiment: CSF-1R kinase assay (AlphaScreen); format: biochemical
CSF-1R kinase, sequence (P07333 20-972): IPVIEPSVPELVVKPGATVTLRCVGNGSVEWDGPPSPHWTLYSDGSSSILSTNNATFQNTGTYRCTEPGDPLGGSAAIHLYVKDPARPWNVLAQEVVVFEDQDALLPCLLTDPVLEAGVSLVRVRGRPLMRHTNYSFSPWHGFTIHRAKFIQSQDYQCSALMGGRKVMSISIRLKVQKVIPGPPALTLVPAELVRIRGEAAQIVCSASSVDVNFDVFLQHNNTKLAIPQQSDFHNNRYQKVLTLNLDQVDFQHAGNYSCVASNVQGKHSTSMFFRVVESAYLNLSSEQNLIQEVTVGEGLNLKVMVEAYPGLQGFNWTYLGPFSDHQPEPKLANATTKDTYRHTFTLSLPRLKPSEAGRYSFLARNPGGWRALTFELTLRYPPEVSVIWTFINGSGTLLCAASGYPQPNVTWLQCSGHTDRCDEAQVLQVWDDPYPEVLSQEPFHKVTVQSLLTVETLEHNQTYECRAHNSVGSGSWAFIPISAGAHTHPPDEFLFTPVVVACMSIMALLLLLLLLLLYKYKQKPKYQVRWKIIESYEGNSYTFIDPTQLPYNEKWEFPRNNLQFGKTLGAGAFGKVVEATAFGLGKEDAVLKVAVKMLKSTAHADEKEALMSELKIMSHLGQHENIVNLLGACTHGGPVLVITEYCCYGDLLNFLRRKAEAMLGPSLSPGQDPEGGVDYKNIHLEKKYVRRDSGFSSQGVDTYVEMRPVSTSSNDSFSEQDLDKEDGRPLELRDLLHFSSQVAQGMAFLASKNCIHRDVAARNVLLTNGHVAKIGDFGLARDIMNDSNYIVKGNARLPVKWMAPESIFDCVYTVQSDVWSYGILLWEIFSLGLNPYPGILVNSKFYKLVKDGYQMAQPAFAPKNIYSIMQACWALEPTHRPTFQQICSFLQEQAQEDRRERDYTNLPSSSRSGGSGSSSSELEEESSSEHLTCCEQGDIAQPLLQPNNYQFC
Description: Inhibition of CSF-1R kinase activity by a test compound disclosed herein was estimated by AlphaScreen (PerkinElmer). […] Reactions were incubated at 30° C. for 45 min and stopped by adding 5 μL of 50 mM EDTA. Analysis of resulting product using an AlphaScreen kit, and counted with Enspire Alpha (PerkinElmer). […] The IC50 values of quinoxaline compounds of this invention against CSF-1R kinase were determined using the GraphPad Prism 5 software.

[1] = system: THP-1 human acute monocytic leukemia cell harboring NRAS G12D mutation; experiment: THP-1 cell proliferation assay (counter screen, CellTiter-96); format: cell-based; conditions: Cytotoxicity, THP-1 cells (counter screen), 72 hours
Description: (§3) Inhibition of cell growth by compounds was measured using CellTiter™-96 assay. The cytotoxicity of compounds was evaluated in CSF-1-dependent M-NFS-60 mouse myeloid leukemia cell, FLT3 signal addicted MV4-11 human acute myeloid leukemia cell with FLT3-ITD mutation, c-KIT signal addicted Kasumi-1 human acute myeloid leukemia cell with c-KIT N822K activating mutation, and THP-1 human acute monocytic leukemia cell harboring NRAS G12D mutation.
THP-1 human acute monocytic leukemia cells harbor NRAS G12D mutation, which renders cell proliferate independently of class III RTKs signal. […] Cells were allowed to expand until reaching saturation at which point they were subcultured or harvested for assay use.
(§4) M-NFS-60, Kasumi-1, MV4-11 and THP-1 cells were seeded into 96-well plates at 2000, 64000, 6500, and 5000 cells/well, respectively, and incubated at 37° C., 5% CO2 overnight. Then, these seeded cells were treated with increasing concentrations of the test compounds and incubated for another 72 hours. At the end of the incubation, CellTiter96® AQueous One Solution Reagent (Promega) was added and incubated for 4 hours. Cell viability was determined by measuring absorbance at 490 nm using EMax® microplate reader (Molecular Devices).

[2] = system: Kasumi-1 human acute myeloid leukemia cell with c-KIT N822K activating mutation; experiment: Kasumi-1 cell proliferation assay (CellTiter-96); format: cell-based; conditions: Cytotoxicity, Kasumi-1 cells, 72 hours
Description: as §3
(§5) The compounds disclosed herein were tested in Kasumi cell proliferation assay to determine their cellular potency against c-KIT kinase. Kasumi human acute myeloid leukemia cells harbor ligand-independent N822K c-KIT activating mutation, thus the cell proliferation relied on c-KIT signal. Inhibition of c-KIT kinase activity will cause reduced growth and/or cell death. […] Cells were allowed to expand until reaching saturation at which point they were subcultured or harvested for assay use.
as §4

[3] = system: CSF-1-dependent M-NFS-60 mouse myeloid leukemia cell; experiment: M-NFS-60 cell proliferation assay (CellTiter-96); format: cell-based; conditions: Cytotoxicity, M-NFS-60 cells, 72 hours
Description: as §3
The compounds disclosed herein were tested in M-NFS-60 cell proliferation assay to determine their cellular potency against CSF-1R. […] Inhibition of CSF-1R kinase activity will cause reduced growth and/or cell death. […] Cells were allowed to expand until reaching saturation at which point they were subcultured or harvested for assay use.
as §4

[4] = system: MV4-11 human acute myeloid leukemia cell with FLT3-ITD mutation; experiment: MV4-11 cell proliferation assay (CellTiter-96); format: cell-based; conditions: Cytotoxicity, MV4-11 cells, 72 hours
Description: as §3
as §5, with “MV4-11” for “Kasumi”, “FLT3” for “c-KIT”, “FLT3-ITD” for “N822K c-KIT”, “which render its” for “thus the cell”, “FLT3-ITD dependent.” for “relied on c-KIT signal.”
as §4

c-KIT kinase, sequence (P10721 26-976): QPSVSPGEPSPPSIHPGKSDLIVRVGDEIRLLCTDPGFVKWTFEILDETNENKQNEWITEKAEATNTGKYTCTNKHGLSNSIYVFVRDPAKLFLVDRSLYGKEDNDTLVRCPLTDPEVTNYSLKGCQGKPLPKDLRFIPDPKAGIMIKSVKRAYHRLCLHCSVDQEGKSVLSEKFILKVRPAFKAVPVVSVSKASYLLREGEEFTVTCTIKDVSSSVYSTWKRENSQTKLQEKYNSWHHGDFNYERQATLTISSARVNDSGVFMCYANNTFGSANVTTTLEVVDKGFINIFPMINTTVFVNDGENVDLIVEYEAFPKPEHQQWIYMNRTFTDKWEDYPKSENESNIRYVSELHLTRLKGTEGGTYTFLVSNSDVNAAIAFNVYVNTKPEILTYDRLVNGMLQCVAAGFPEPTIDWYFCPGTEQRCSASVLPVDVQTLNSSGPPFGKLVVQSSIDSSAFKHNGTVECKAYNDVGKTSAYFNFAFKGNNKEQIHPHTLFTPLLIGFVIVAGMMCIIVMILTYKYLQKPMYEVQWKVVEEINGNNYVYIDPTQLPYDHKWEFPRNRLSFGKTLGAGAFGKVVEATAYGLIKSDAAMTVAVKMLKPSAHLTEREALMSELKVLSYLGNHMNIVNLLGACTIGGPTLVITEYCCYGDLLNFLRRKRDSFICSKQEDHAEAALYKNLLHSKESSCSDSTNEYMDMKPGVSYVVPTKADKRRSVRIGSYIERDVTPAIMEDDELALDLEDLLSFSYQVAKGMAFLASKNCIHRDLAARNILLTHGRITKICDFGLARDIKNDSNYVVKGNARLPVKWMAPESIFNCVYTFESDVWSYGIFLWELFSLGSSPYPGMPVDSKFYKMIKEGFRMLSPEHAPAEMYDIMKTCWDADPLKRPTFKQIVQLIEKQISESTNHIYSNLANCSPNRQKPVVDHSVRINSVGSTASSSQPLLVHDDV

IC50 (c-KIT kinase; class symbol) [nM] | IC50 (PDGFRβ kinase) [nM] | IC50 (FLT3 kinase; bound) [nM] | IC50 (CSF-1R kinase; class symbol) [nM] | IC50 (FLT3 kinase; class symbol) [nM] | IC50 (c-KIT kinase; bound) [nM] | IC50 (CSF-1R kinase; bound) [nM] | SMILES | IC50 [1] [nM] | IC50 [2] [nM] | IC50 [3] [nM] | IC50 [4] [nM]
100 to 300 | > 1000 | > 1000 | 300 to 1000 |  |  |  | COc1ccc(COc2ccc(Nc3ccc4ncc(OC)nc4c3C#N)cc2OC)cc1 [Example 3, 3-methoxy-6-((3-methoxy-4-((4-methoxybenzyl)oxy)phenyl)amino)quinoxaline-5-carbonitrile] |  |  |  | 
 |  |  |  |  |  |  | COc1cnc2ccc(Nc3ccc(OC)c(OC)c3)c(C#N)c2n1 [Example 11, 6-((3,4-dimethoxyphenyl)amino)-3-methoxyquinoxaline-5-carbonitrile] | > 10000 | 1000 to 10000 | > 10000 | 1000 to 10000
100 to 300 |  |  |  | 100 to 300 |  |  | COc1cc(Nc2ccc3ncc(N4CCOCC4)nc3c2C#N)ccc1OCc1ccc(C)[n+]([O-])c1 [Example 146, 6-((3-methoxy-4-((6-methyl-1-(λ^1-oxidaneyl)-1λ^4-pyridin-3-yl)methoxy)phenyl)amino)-3-morpholinoquinoxaline-5-carbonitrile] | > 10000 | 1000 to 10000 | 1000 to 10000 | 1000 to 10000
 |  |  |  |  |  |  | COc1cnc2ccc(Nc3ccc(NCc4ccc(C(F)(F)F)nc4)nc3)c(C#N)c2n1 [Example 1, 3-methoxy-6-((6-(((6-(trifluoromethyl)pyridin-3-yl)methyl)amino)pyridin-3-yl)amino)quinoxaline-5-carbonitrile] | > 10000 | 1000 to 10000 | > 10000 | 1000 to 10000
 |  |  |  |  |  |  | CCOc1cc(Nc2ccc3ncc(N4CCOCC4)nc3c2C#N)ccc1OCc1ccncc1 [Example 47, 6-((3-ethoxy-4-(pyridin-4-ylmethoxy)phenyl)amino)-3-morpholinoquinoxaline-5-carbonitrile] | > 10000 | > 10000 | 1000 to 10000 | 1000 to 10000
 | > 1000 | > 1000 | < 100 |  | > 1000 |  | COc1ccc(COc2ccc(Nc3ccc4ncc(-n5ccnc5)nc4c3C#N)cc2OC)cn1 [Example 70, 3-(1H-imidazol-1-yl)-6-((3-methoxy-4-((6-methoxypyridin-3-yl)methoxy)phenyl)amino)quinoxaline-5-carbonitrile] |  |  |  | 
 |  |  |  |  |  |  | COc1cc(Nc2ccc3ncc(N4CCOCC4)nc3c2C#N)ccc1OCC1CCCC1 [Example 44, 6-((4-(cyclopentylmethoxy)-3-methoxyphenyl)amino)-3-morpholinoquinoxaline-5-carbonitrile] | > 10000 | 1000 to 10000 | 1000 to 10000 | 1000 to 10000
 |  |  |  |  |  |  | COc1cnc2ccc(Nc3ccc(OCc4cccnc4)c(OC)c3)c(C#N)c2n1 [Example 8, 3-methoxy-6-((3-methoxy-4-(pyridin-3-ylmethoxy)phenyl)amino)quinoxaline-5-carbonitrile] | > 10000 | > 10000 | > 10000 | 1000 to 10000
 | > 1000 | > 1000 | 100 to 300 |  | > 1000 |  | COc1cnc2ccc(Nc3ccc(OCc4ccc(OC)c(C#N)c4)c(OC)c3)c(C#N)c2n1 [Example 140, 6-((4-((3-cyano-4-methoxybenzyl)oxy)-3-methoxyphenyl)amino)-3-methoxyquinoxaline-5-carbonitrile] |  |  |  | 
 |  |  |  |  |  |  | COc1cc(Nc2ccc3ncc(N4CCOCC4)nc3c2C#N)ccc1OCC1CCN(C)CC1 [Example 42, 6-((3-methoxy-4-((1-methylpiperidin-4-yl)methoxy)phenyl)amino)-3-morpholinoquinoxaline-5-carbonitrile] | > 10000 | 1000 to 10000 | 1000 to 10000 | 1000 to 10000
300 to 1000 | > 1000 | > 1000 |  |  |  | > 1000 | COc1cc(Nc2ccc3ncc(N4CCOCC4)nc3c2C#N)ccc1OCc1ccccn1 [Example 57, 6-((3-methoxy-4-(pyridin-2-ylmethoxy)phenyl)amino)-3-morpholinoquinoxaline-5-carbonitrile] |  |  |  | 
 |  |  |  |  |  |  | COc1cnc2ccc(Nc3ccc(OCc4cccnc4)nc3)c(C#N)c2n1 [Example 6, 3-methoxy-6-((6-(pyridin-3-ylmethoxy)pyridin-3-yl)amino)quinoxaline-5-carbonitrile] | > 10000 | > 10000 | > 10000 | 1000 to 10000
 |  |  |  |  |  |  | COc1ccc(CNc2ccc(Nc3ccc4ncc(OC)nc4c3C#N)cc2OC)cc1 [Example 14, 3-methoxy-6-((3-methoxy-4-((4-methoxybenzyl)amino)phenyl)amino)quinoxaline-5-carbonitrile] | > 10000 | > 10000 | > 10000 | 1000 to 10000
 |  |  |  |  |  |  | COc1cc(Nc2ccc3ncc(N4CCOCC4)nc3c2C#N)ccc1OCC1(C)COC1 [Example 41, 6-((3-methoxy-4-((3-methyloxetan-3-yl)methoxy)phenyl)amino)-3-morpholinoquinoxaline-5-carbonitrile] | > 10000 | 1000 to 10000 | > 10000 | 1000 to 10000
